Source: patent US20160339022A1, “TREATMENT OF NEUROBLASTOMA WITH HISTONE DEACETYLASE INHIBITORS” (Acetylon Pharmaceuticals Inc., priority 2015, published 2016)

What was measured:
[1] = test system: neuroblastoma cells; assay: Cell cycle analysis (Click-iT EdU and FxCycle PI/RNase staining); type: cell-based; settings: 7 days, with ATRA
Experimental: Cells were cultured for 7 days with the indicated treatments and then stained with the Invitrogen Click-iT EdU kit and the Invitrogen FxCycle […] kits to assess frequency of cells in each stage of the cell cycle. […] The effect is enhanced by Compound B in a dose dependent manner.
In combination with ATRA, the effect on p21 is enhanced at concentrations that induce gene expression changes consistent with differentiation. At 7 days of treatment, combination effects are observed on the cell cycle, with a decreasing frequency of s-phase cells and an increasing sub-G1 population (FIG. 6B). […] EDU is increased in cells in s-phase while PI intensity indicates relative levels of DNA. Using these metrics, we illustrate the frequency of cells in the indicated states of the cell cycle.

[2] = test system: neuroblastoma cells; assay: Histone acetylation in neuroblastoma cells by western blot; type: cell-based; settings: western blot at 24 hours
[3] = test system: SK-N-BE(2) cells; assay: Differentiation Index Score based on a gene signature; type: cell-based; settings: 48 hours, FIG. 1
Experimental: A subset of the fingerprint genes are assessed for each treatment group, and a score is assigned to each gene based on the degree of expression and weighted with a (+) or (−) sign based on if it increased or decreased as predicted. The scores are summed to generate a single Index value for each treatment group, set to ATRA signal and compared. It is observed that HDAC1/2i induce gene expression consistent with differentiation and that in combination with ATRA, the differentiation effect is enhanced.
The combination of the listed compounds with retinoic acid results in a greater differentation index score, illustrating enhanced differentiation in the combination setting.

[4] = test system: neuroblastoma cells; assay: Long term growth assay (15, 20, 25 days, Crystal Violet); type: cell-based
Experimental: Cells were cultured for 15, 20 or 25 days with the indicated treatments. Cells were imaged on an inverted microscope at days 15 and 20. On day 25, the cells were stained with Crystal Violet dye and imaged by cell phone camera Importantly, the combination of ATRA and Compound B suppressed the growth of ATRA-resistant colonies.
Cells were cultured for 15, 20 or 25 days with the indicated treatments. Cells were imaged on an inverted microscope at days 15 and 20. On day 25, the cells were stained with Crystal Violet dye and imaged.
Cells were cultured for 15, 20 or 25 days with the indicated treatments. Cells were imaged on an inverted microscope at days 15 and 20. On day 25, the cells were stained with Crystal Violet dye and imaged. It was observed that the combination activity is mediated by HDAC1/2i.
Neuroblastoma cells were treated with Compound B or the HDAC3-selective inhibitor Compound C in a long term growth assay.

[5] = target: HDAC2 (Homo sapiens, UniProt Q92769); assay: HDAC2 activity in live cells; type: cell-based; settings: FIG. 1C
Chain of HDAC2 (Q92769 whole entry): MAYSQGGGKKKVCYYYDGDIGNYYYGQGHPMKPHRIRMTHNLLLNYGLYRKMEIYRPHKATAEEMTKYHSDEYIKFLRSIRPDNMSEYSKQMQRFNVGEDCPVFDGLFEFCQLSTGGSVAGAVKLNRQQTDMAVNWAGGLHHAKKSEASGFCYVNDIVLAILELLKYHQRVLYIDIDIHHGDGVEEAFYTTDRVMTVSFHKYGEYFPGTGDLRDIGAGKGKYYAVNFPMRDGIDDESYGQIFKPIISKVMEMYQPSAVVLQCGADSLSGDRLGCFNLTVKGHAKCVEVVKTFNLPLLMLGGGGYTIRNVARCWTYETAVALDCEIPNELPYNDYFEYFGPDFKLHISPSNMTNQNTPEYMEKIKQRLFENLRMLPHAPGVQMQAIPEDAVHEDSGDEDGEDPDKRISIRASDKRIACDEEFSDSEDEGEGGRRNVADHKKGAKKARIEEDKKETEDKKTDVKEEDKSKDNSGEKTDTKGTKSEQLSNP

[6] = test system: SK-N-BE(2) cells; assay: Microarray gene expression and gene set enrichment analysis; type: cell-based, Homo sapiens; settings: 3 μM Compound B, 1 μM ATRA or combination, microarray 48 hr, fold relative to the DMSO control group
Experimental: Gene expression from cells treated with ATRA single agent and combination of ATRA and HDAC1/2i were assessed at 2 hrs and 48 hrs of treatment (FIG. 12A). […] A function analysis of the data using the Ingenuity IPA platform was performed by Qiagen; overlap is observed in the top hits between treatment groups.
Genes that statistically increase over 2-fold relative to the DMSO control were mapped on a Venn diagram (FIG. 12B).
Neuroblastoma cell line SK-N-BE(2) cells were treated with 3 μM Compound B, 1 μM ATRA, or a combination of both at 37° C. over 2 hours (FIG. 12A) or 48 hours (FIG. 12B) and compared to the solvent (DMSO) control.

[7] = test system: neuroblastoma cells; assay: Morphology changes / dendrite outgrowth by inverted microscope; type: cell-based; settings: 3, 5 and 7 days
Experimental: Cells were cultured for 3, 5, and 7 days with the indicated treatments. Images were captured on an inverted microscope.

[8] = test system: p21; assay: Expression of cell cycle regulator p21; type: cell-based; settings: single agent, FIG. 6A
[9] = test system: neuroblastoma cells; assay: Neuroblastoma proliferation, manual cell counts over 7 days; type: cell-based; settings: 1 μM and 3 μM, counted at days 3, 5 and 7
Experimental: Cells were cultured over a 7 day period and manually counted at days 3, 5, and 7.

[10] = test system: neuroblastoma cells; settings: MTS assay, FIGS. 27 and 28
Experimental: Viable cells were measured in an MTS assay and the combination index (CI) was calculated using the Chou-Talaay method.

[11] = test system: Wnt signaling pathway; assay: Levels of Wnt-related signaling molecules; type: cell-based; settings: SK-N-BE2 cells; 3 days in culture
Experimental: The levels of Wnt-related signaling molecules were assessed following treatment (SK-N-BE2 cells; 3 days in culture) with DMSO (control), Compound B alone, ATRA alone, and Compound B in combination with ATRA. b-catenin, the key signaling molecule in the Wnt pathway, is decreased by the Compound B and ATRA combination. Activated p-LRP is decreased after Compound B single agent treatment. Disheveled (Dvl) 2 & 3 is reduced by Compound B and ATRA combination treatment. Naked2 is increased by Compound B as a single agent and in combination with ATRA. Axin1 is decreased by Compound B as a single agent and in combination with ATRA.

[12] = test system: SK-N-BE(2) cells; assay: Cell viability (Promega CellTiter Glo assay); type: cell-based
Experimental: Cells were cultured for 48 hours at the indicated concentration of drug, and then cell viability was measured by Promega CellTiter Glo assay and caspase activity was measured by Promega Caspase3/7 Glo assay. […] Anti-tumor activity is evident at 3 μM of treatment.

Structure (SMILES): Nc1ccc(-c2cccs2)cc1NC(=O)c1ccc2c(c1)cc(C1CC1)n2CCN1CCOCC1 [Compound B, N-(2-amino-5-(thiophen-2-yl)phenyl)-2-cyclopropyl-1-(2-morpholinoethyl)-1H-indole-5-carboxamide]
- effect on ATRA-mediated s-phase reduction and sub-G1 increase [1]: enhanced
- histone acetylation [2]: induces histone acetylation
- Differentiation Index Score (gene signature) [3]: induces gene expression changes consistent with differentiation
- neuroblastoma cell growth in long term growth assay ([4]; 1 μM of exposure, single agent, FIG. 11): reduced neuroblastoma cell growth
- growth of ATRA-resistant colonies ([4]; combination with ATRA, 15-25 days): strongly suppressed
- potency of inhibition of HDAC2 activity in live cells [5]: 0.5 to 3 µM
- Gene Expression Change, ACSL3 [6]: 2.23
- Gene Expression Change, ATP7A [6]: 1.98
- Gene Expression Change, CDKN1A [6]: 1.93
- Gene Expression Change, CRABP2 [6]: 1.18
- Gene Expression Change, CTSH [6]: 3.05
- Gene Expression Change, CYP26A1 [6]: 0.99
- Gene Expression Change, CYP26B1 [6]: 1.87
- Gene Expression Change, DHRS3 [6]: 1.03
- Gene Expression Change, DUSP6 [6]: 3.33
- Gene Expression Change, ETS1 [6]: 3.00
- Gene Expression Change, HSPA5 [6]: 3.78
- Gene Expression Change, IER3 [6]: 2.33
- Gene Expression Change, NFKBIZ [6]: 1.95
- Gene Expression Change, PCDH18 [6]: 2.53
- Gene Expression Change, PTGER2 [6]: 1.41
- Gene Expression Change, RARB [6]: 1.14
- Gene Expression Change, RET [6]: 1.34
- morphology / dendrite outgrowth [7]: does not alter morphology
- expression of master cell cycle regulator p21 [8]: increased expression
- proliferation, single agent [9]: can suppress proliferation similar to ATRA
- cytotoxic effect on neuroblastoma cells as a single agent [10]: has a cytotoxic effect
- Axin1 level [11]: decreased
- Naked2 level [11]: increased
- activated p-LRP level [11]: decreased
- cell death ([12]; 1 μM, 48 hours): Minimal
- anti-tumor activity ([12]; 3 μM, 48 hours): evident
- concentrations causing tumor cell death ([12]; FIG. 2A): ≥ 2 µM
